ChEMBL document CHEMBL1201862, “PubChem BioAssay data set” (2004)
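Five concentrations, 48 hours, 96-well plates. GI50: concentration for 50% inhibition of growth.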 Active and inactive are the calls of the source. Cut-off read from the data, not from the text of the source: active = GI50 up to about 1.1 µM and inactive = higher.

Columns and labels:
Assay in all cases: NCI-60 cell line screen, 48 h
UACC-62 = system: UACC-62
SK-MEL-5 = system: SK-MEL-5
A549 = system: A549
UO-31 = system: UO-31
HL-60 = system: HL-60
SF-539 = system: SF-539
CAKI-1 = system: CAKI-1
ACHN = system: ACHN
SNB-19 = system: SNB-19
HCT-116 = system: HCT-116
XF498 = system: XF498
IGROV-1 = system: IGROV-1
HOP-62 = system: HOP-62
LXFL 529 = system: LXFL 529
SR = system: SR
KM-20L2 = system: KM-20L2
SW-620 = system: SW-620
HCC 2998 = system: HCC 2998
RPMI-8226 = system: RPMI-8226
786-0 = system: 786-0
SK-MEL-2 = system: SK-MEL-2
TK-10 = system: TK-10
NCI-H226 = system: NCI-H226
COLO 205 = system: COLO 205
EKVX = system: EKVX
M14 = system: M14
RXF 631 = system: RXF 631
U-251 = system: U-251
DLD-1 = system: DLD-1
NCI-H522 = system: NCI-H522
UACC-257 = system: UACC-257
CCRF-CEM = system: CCRF-CEM
HT-29 = system: HT-29
HOP-18 = system: HOP-18
OVCAR-3 = system: OVCAR-3
DMS-273 = system: DMS-273
SK-OV-3 = system: SK-OV-3
MOLT-4 = system: MOLT-4
SF-268 = system: SF-268
SK-MEL-28 = system: SK-MEL-28
NCI-H23 = system: NCI-H23
Malme-3M = system: Malme-3M
LOX IMVI = system: LOX IMVI
NCI-H460 = system: NCI-H460
SNB-78 = system: SNB-78
KM12 = system: KM12
HCT-15 = system: HCT-15
SNB-75 = system: SNB-75
SN12C = system: SN12C
SF-295 = system: SF-295
DMS-114 = system: DMS-114
M19-MEL = system: M19-MEL
OVCAR-8 = system: OVCAR-8
HOP-92 = system: HOP-92
K562 = system: K562
A498 = system: A498
OVCAR-4 = system: OVCAR-4
RXF 393 = system: RXF 393
OVCAR-5 = system: OVCAR-5
MDA-MB-231 = system: MDA-MB-231
T47D = system: T47D
DU-145 = system: DU-145
Hs-578T = system: Hs-578T
MCF7 = system: MCF7
BT-549 = system: BT-549
MDA-MB-435 = system: MDA-MB-435
PC-3 = system: PC-3
MDA-N = system: MDA-N

O=C(NCCCCCCCCCCCCNC(=O)c1cccc2ccccc12)c1cccc2ccccc12
GI50 (UACC-62): > 100 µM (inactive) | GI50 (SK-MEL-5): > 100 µM (inactive) | GI50 (A549): > 68.5 µM (inactive) | GI50 (UO-31): > 42.7 µM (inactive) | GI50 (HL-60): 31.3 µM (inactive) | GI50 (SF-539): 1.66 µM (inactive) | GI50 (CAKI-1): 23.3 µM (inactive) | GI50 (ACHN): > 64 µM (inactive) | GI50 (SNB-19): 45.6 µM (inactive) | GI50 (HCT-116): > 57.9 µM (inactive) | GI50 (XF498): > 47.8 µM (inactive) | GI50 (IGROV-1): > 55.3 µM (inactive) | GI50 (HOP-62): 2.98 µM (inactive) | GI50 (LXFL 529): > 91.4 µM (inactive) | GI50 (SR): 47 µM (inactive) | GI50 (KM-20L2): > 100 µM (inactive) | GI50 (SW-620): > 67.5 µM (inactive) | GI50 (HCC 2998): > 100 µM (inactive) | GI50 (RPMI-8226): > 100 µM (inactive) | GI50 (786-0): > 44.8 µM (inactive) | GI50 (SK-MEL-2): > 58.1 µM (inactive) | GI50 (TK-10): > 52.7 µM (inactive) | GI50 (NCI-H226): > 49.9 µM (inactive) | GI50 (COLO 205): > 100 µM (inactive) | GI50 (EKVX): > 62.8 µM (inactive) | GI50 (M14): > 100 µM (inactive) | GI50 (RXF 631): 31.2 µM (inactive) | GI50 (U-251): > 36.7 µM (inactive) | GI50 (DLD-1): 51.4 µM (inactive) | GI50 (NCI-H522): > 100 µM (inactive) | GI50 (UACC-257): > 100 µM (inactive) | GI50 (CCRF-CEM): > 56.2 µM (inactive) | GI50 (HT-29): > 100 µM (inactive) | GI50 (HOP-18): > 61.1 µM (inactive) | GI50 (OVCAR-3): > 45.9 µM (inactive) | GI50 (DMS-273): > 100 µM (inactive) | GI50 (SK-OV-3): > 47.5 µM (inactive) | GI50 (MOLT-4): > 100 µM (inactive) | GI50 (SF-268): > 100 µM (inactive) | GI50 (SK-MEL-28): > 100 µM (inactive) | GI50 (NCI-H23): > 64.1 µM (inactive) | GI50 (Malme-3M): > 92.3 µM (inactive) | GI50 (LOX IMVI): > 84.9 µM (inactive) | GI50 (NCI-H460): > 90.8 µM (inactive) | GI50 (SNB-78): > 47 µM (inactive) | GI50 (KM12): 97.3 µM (inactive) | GI50 (HCT-15): > 100 µM | GI50 (SNB-75): 26.1 µM (inactive) | GI50 (SN12C): > 68.4 µM (inactive) | GI50 (SF-295): > 50.4 µM (inactive) | GI50 (DMS-114): > 100 µM (inactive) | GI50 (M19-MEL): > 100 µM (inactive) | GI50 (OVCAR-8): 31.5 µM (inactive) | GI50 (HOP-92): > 52.2 µM (inactive) | GI50 (K562): > 100 µM (inactive) | GI50 (A498): > 47.9 µM (inactive) | GI50 (OVCAR-4): 6.24 µM (inactive) | GI50 (RXF 393): > 100 µM (inactive) | GI50 (OVCAR-5): > 100 µM (inactive)

CCn1c2c(n(CC)c1=S)-c1c(n(CC)c(=S)n1CC)SSSS2
GI50 (UACC-62): 10.7 µM (inactive) | GI50 (SK-MEL-5): 27 µM (inactive) | GI50 (A549): 36.7 µM (inactive) | GI50 (UO-31): 12.7 µM (inactive) | GI50 (HL-60): 2.9 µM (inactive) | GI50 (SF-539): 12.2 µM (inactive) | GI50 (CAKI-1): 17.9 µM (inactive) | GI50 (MDA-MB-231): 2.18 µM (inactive) | GI50 (ACHN): 5.02 µM (inactive) | GI50 (SNB-19): > 84.1 µM (inactive) | GI50 (HCT-116): 3.4 µM (inactive) | GI50 (XF498): 1.52 µM (inactive) | GI50 (IGROV-1): 17.8 µM (inactive) | GI50 (HOP-62): > 100 µM (inactive) | GI50 (LXFL 529): 2.1 µM (inactive) | GI50 (SR): 1.69 µM (inactive) | GI50 (T47D): 1.63 µM (inactive) | GI50 (KM-20L2): 11.6 µM (inactive) | GI50 (SW-620): 1.67 µM (inactive) | GI50 (HCC 2998): 25.4 µM (inactive) | GI50 (RPMI-8226): 2.82 µM (inactive) | GI50 (786-0): 16.7 µM (inactive) | GI50 (SK-MEL-2): 16.6 µM (inactive) | GI50 (TK-10): 15.2 µM (inactive) | GI50 (NCI-H226): 31.8 µM (inactive) | GI50 (COLO 205): 5.53 µM (inactive) | GI50 (EKVX): 14.5 µM (inactive) | GI50 (M14): 6.35 µM (inactive) | GI50 (RXF 631): 15.3 µM (inactive) | GI50 (U-251): 22.2 µM (inactive) | GI50 (DLD-1): 1.63 µM (inactive) | GI50 (DU-145): > 100 µM (inactive) | GI50 (NCI-H522): 1.88 µM (inactive) | GI50 (Hs-578T): 0.308 µM (active) | GI50 (UACC-257): 8.57 µM (inactive) | GI50 (MCF7): 16 µM (inactive) | GI50 (BT-549): 15.4 µM (inactive) | GI50 (CCRF-CEM): 1.24 µM (inactive) | GI50 (HT-29): 11.7 µM (inactive) | GI50 (HOP-18): 8.85 µM (inactive) | GI50 (OVCAR-3): 7.23 µM (inactive) | GI50 (DMS-273): 17.5 µM (inactive) | GI50 (SK-OV-3): > 67.3 µM (inactive) | GI50 (MOLT-4): 2.31 µM (inactive) | GI50 (SF-268): 21.1 µM (inactive) | GI50 (SK-MEL-28): 7.31 µM (inactive) | GI50 (NCI-H23): 8.75 µM (inactive) | GI50 (Malme-3M): 2.83 µM (inactive) | GI50 (MDA-MB-435): 13.3 µM (inactive) | GI50 (LOX IMVI): 9.79 µM (inactive) | GI50 (NCI-H460): 53.7 µM (inactive) | GI50 (PC-3): > 10 µM (inactive) | GI50 (SNB-78): 11.4 µM (inactive) | GI50 (KM12): 19.2 µM (inactive) | GI50 (HCT-15): 4.49 µM | GI50 (SNB-75): 1.91 µM (inactive) | GI50 (SN12C): 11.2 µM (inactive) | GI50 (SF-295): 40.7 µM (inactive) | GI50 (DMS-114): 15.8 µM (inactive) | GI50 (M19-MEL): 7.78 µM (inactive) | GI50 (OVCAR-8): 8.77 µM (inactive) | GI50 (HOP-92): 3.33 µM (inactive) | GI50 (K562): 1.03 µM (active) | GI50 (MDA-N): > 10 µM (inactive) | GI50 (A498): 37.5 µM (inactive) | GI50 (OVCAR-4): 9.53 µM (inactive) | GI50 (RXF 393): 1.36 µM (inactive) | GI50 (OVCAR-5): 17.3 µM (inactive)

CN(C)c1n/c(=N/c2cccc(Cl)c2)ss1
GI50 (UACC-62): 10.8 µM (inactive) | GI50 (SK-MEL-5): 27.5 µM (inactive) | GI50 (A549): 22.7 µM (inactive) | GI50 (UO-31): 38.4 µM (inactive) | GI50 (HL-60): 3.74 µM (inactive) | GI50 (SF-539): 18.7 µM (inactive) | GI50 (CAKI-1): 19.1 µM (inactive) | GI50 (ACHN): 18.4 µM (inactive) | GI50 (SNB-19): 35.9 µM (inactive) | GI50 (HCT-116): 11.9 µM (inactive) | GI50 (XF498): 16.7 µM (inactive) | GI50 (IGROV-1): 20.3 µM (inactive) | GI50 (HOP-62): 68.5 µM (inactive) | GI50 (LXFL 529): 7.14 µM (inactive) | GI50 (SR): 4.12 µM (inactive) | GI50 (KM-20L2): 17.4 µM (inactive) | GI50 (SW-620): 5.52 µM (inactive) | GI50 (HCC 2998): 20.4 µM (inactive) | GI50 (RPMI-8226): 0.951 µM (active) | GI50 (786-0): 12.9 µM (inactive) | GI50 (SK-MEL-2): 16.9 µM (inactive) | GI50 (TK-10): 55.2 µM (inactive) | GI50 (NCI-H226): 34.7 µM (inactive) | GI50 (EKVX): 23.7 µM (inactive) | GI50 (M14): 14.6 µM (inactive) | GI50 (RXF 631): 13.5 µM (inactive) | GI50 (U-251): 11.8 µM (inactive) | GI50 (DLD-1): 12.1 µM (inactive) | GI50 (NCI-H522): 1.16 µM (inactive) | GI50 (UACC-257): 15.6 µM (inactive) | GI50 (CCRF-CEM): 0.0405 µM (active) | GI50 (HT-29): 18.8 µM (inactive) | GI50 (HOP-18): > 100 µM (inactive) | GI50 (DMS-273): 13 µM (inactive) | GI50 (SK-OV-3): 68.9 µM (inactive) | GI50 (MOLT-4): 3.03 µM (inactive) | GI50 (SF-268): 13.6 µM (inactive) | GI50 (SK-MEL-28): 12.1 µM (inactive) | GI50 (NCI-H23): 12.9 µM (inactive) | GI50 (Malme-3M): 14.1 µM (inactive) | GI50 (LOX IMVI): 14.5 µM (inactive) | GI50 (NCI-H460): 9.2 µM (inactive) | GI50 (SNB-78): 18.1 µM (inactive) | GI50 (KM12): 17.5 µM (inactive) | GI50 (HCT-15): 14.5 µM | GI50 (SNB-75): 31 µM (inactive) | GI50 (SN12C): 12.8 µM (inactive) | GI50 (SF-295): 24.1 µM (inactive) | GI50 (DMS-114): 11.2 µM (inactive) | GI50 (M19-MEL): 17.1 µM (inactive) | GI50 (OVCAR-8): 12.9 µM (inactive) | GI50 (HOP-92): 28.1 µM (inactive) | GI50 (K562): 9.08 µM (inactive) | GI50 (A498): 28.1 µM (inactive) | GI50 (OVCAR-4): 14.6 µM (inactive) | GI50 (RXF 393): 16.7 µM (inactive) | GI50 (OVCAR-5): 35 µM (inactive)
